The test system of the assay is tobacco bacterial rot (Pectobacterium carotovorum). Nature of the assay: Suppression of tobacco bacterial rot. It counts as in vivo, Pectobacterium carotovorum SCC1. The method, then: A tobacco or cucumber was sown in a plastic pot with a diameter of 10 cm×13 cm, and then, 12 pots were added in a yellow box. After seeding, 100 μL was inoculated to the cotyledons of cucumber or tobacco, in which first leaf was started to come out. The test compounds were dissolved in 20% methanol to make a stock solution, and then, the stock solution was diluted to the concentrations of 1, 10, and 100 ppm.
After 7 days, the pathogen of a plant bacterial rot (Pectobacterium carotovorum SCC1) was cultured in a TSA medium for 27 hours; and then, the cultured pathogen was sprayed in a concentration of 10^8 cfu/mL to the plant leaves, and cultured at 30° C. for 3 days. The plant anthracnose germ (Colletotrichum orbiculare) was cultured in a GBA (Green bean agar) medium to induce spores for about 2 to 3 weeks. The germ was sprayed in a concentration of 10^5 cell/mL and then cultured at 26° C. for 1 day. When fourth or fifth leaf came out, 200 μL of each of the test compounds was inoculated to third leaf. After 7 days, the pathogen of the plant bacterial rot was sprayed to the plant leaves in the concentration of 10^8 cfu/mL, and then cultured at 30° C. for 3 days.
The investigation was performed with naked eyes, and the lesion relative areas were investigated until 0 to 100% according to the shortness degrees of the bacterial rot. The anthracnose was investigated by counting the number of lesions occurred on the leaves.

Square brackets hold non-standard residues; d marks the D form. Peptide text beside a SMILES is read from it. * marks the point of attachment. ξ: configuration not given here. dIle(3ξ) = CCC(C)[C@@H](N)C(=O)O; Boc = CC(C)(C)OC(=O)*; OtBu = CC(C)(C)O*

Consider `COC(=O)[C@H]1CCCN1C(=O)[C@H](Cc1ccccc1)NC(=O)OC(C)(C)C` [Compound 42] (Boc-Phe-[dP]-OMe), for which the Lesion outbreak rate (Table 4, tobacco, 1 ppm) was determined as 43%; the Lesion outbreak rate (Table 4, tobacco, 10 ppm) is reported as 60%; the Lesion outbreak rate (Table 4, tobacco, 100 ppm) is reported as 45%.
Taken in the same sequence, the figures for `COC(=O)[C@H]1CCCN1C(=O)[C@H](Cc1c[nH]c2ccccc12)NC(=O)OC(C)(C)C` [Compound 43] (Boc-Trp-[dP]-OMe) were 35%, 45% and 31%.
For the compound `COC(=O)[C@H]1CCCN1C(=O)[C@H](C)NC(=O)OC(C)(C)C` [Compound 44] (Boc-Ala-[dP]-OMe), the Lesion outbreak rate is, setting by setting: (Table 4, tobacco, 1 ppm) 46%; (Table 4, tobacco, 10 ppm) 37%; (Table 4, tobacco, 100 ppm) 33%.
For `COC(=O)[C@H]1CCCN1C(=O)[C@H](CCC(N)=O)NC(=O)OC(C)(C)C` [Compound 45] (Boc-Gln-[dP]-OMe), the Lesion outbreak rate by setting is: (Table 4, tobacco, 1 ppm) 83%; (Table 4, tobacco, 10 ppm) 33%; (Table 4, tobacco, 100 ppm) 55%.
Consider `COC(=O)[C@H]1CCCN1C(=O)[C@H](Cc1c[nH]cn1)NC(=O)OC(C)(C)C` [Compound 46], for which the Lesion outbreak rate is given as 56% (Table 4, tobacco, 1 ppm); 70% (Table 4, tobacco, 10 ppm); 48% (Table 4, tobacco, 100 ppm).
`COC(=O)C1CCCN1C(=O)C(NC(=O)OC(C)(C)C)C(C)O` (stereo not drawn) [Compound 47] (Boc-Thr-Pro-OMe; configuration not given here): the Lesion outbreak rate reads like this: (Table 5, tobacco, 10 ppm) 0%; (Table 5, tobacco, 100 ppm) 50%.
Taken in the same sequence, the figures for `COC(=O)[C@H]1CCCN1C(=O)[C@H](CCCCNC(=O)OC(C)(C)C)NC(=O)OC(C)(C)C` [Compound 48] (Boc-Lys(Boc)-[dP]-OMe) were 25% and 50%.
`COC(=O)[C@H]1CCCN1C(=O)[C@@H](NC(=O)OC(C)(C)C)C(C)C` [Compound 49] (Boc-Val-[dP]-OMe): the Lesion outbreak rate reads like this: (Table 5, tobacco, 10 ppm) 23%; (Table 5, tobacco, 100 ppm) 0%.
For the compound `COC(=O)[C@H]1CCCN1C(=O)[C@H](CCC(=O)OC(C)(C)C)NC(=O)OC(C)(C)C` [Compound 50] (Boc-Glu(OtBu)-[dP]-OMe), the Lesion outbreak rate reads like this: (Table 5, tobacco, 10 ppm) 35%; (Table 5, tobacco, 100 ppm) 60%.
Taken in the same sequence, the figures for `COC(=O)[C@@H]1CCCN1C(=O)[C@@H](C)NC(=O)OC(C)(C)C` [Compound 51] (Boc-[dA]-Pro-OMe) were 0% and 68%.
For `COC(=O)[C@@H]1CCCN1C(=O)[C@@H](Cc1c[nH]c2ccccc12)NC(=O)OC(C)(C)C` [Compound 52] (Boc-[dW]-Pro-OMe), the Lesion outbreak rate by setting is: (Table 5, tobacco, 10 ppm) 0%; (Table 5, tobacco, 100 ppm) 25%.
Consider `COC(=O)[C@@H]1CCCN1C(=O)[C@@H](Cc1ccc(O)cc1)NC(=O)OC(C)(C)C` [Compound 53] (Boc-[dY]-Pro-OMe), for which the Lesion outbreak rate worked out at 45% (Table 5, tobacco, 10 ppm) and 50% (Table 5, tobacco, 100 ppm).
For the compound `COC(=O)[C@@H]1CCCN1C(=O)[C@@H](CCC(N)=O)NC(=O)OC(C)(C)C` [Compound 54] (Boc-[dQ]-Pro-OMe), the Lesion outbreak rate turned out to be 36% (Table 5, tobacco, 10 ppm) and 60% (Table 5, tobacco, 100 ppm).
For `COC(=O)[C@@H]1CCCN1C(=O)[C@H]1CCCN1C(=O)OC(C)(C)C` [Compound 55] (Boc-[dP]-Pro-OMe), the Lesion outbreak rate reads like this: (Table 5, tobacco, 10 ppm) 48%; (Table 5, tobacco, 100 ppm) 36%.
The compound `COC(=O)[C@@H]1CCCN1C(=O)[C@H](NC(=O)OC(C)(C)C)C(C)C` [Compound 56] (Boc-[dV]-Pro-OMe) registered a Lesion outbreak rate (Table 5, tobacco, 10 ppm) of 13% and a Lesion outbreak rate (Table 5, tobacco, 100 ppm) of 40%.
For the compound `COC(=O)[C@@H]1CCCN1C(=O)[C@@H](CC(C)C)NC(=O)OC(C)(C)C` [Compound 57] (Boc-[dL]-Pro-OMe), the Lesion outbreak rate runs as follows: (Table 5, tobacco, 10 ppm) 25%; (Table 5, tobacco, 100 ppm) 25%.
As for `CCC(C)[C@@H](NC(=O)OC(C)(C)C)C(=O)N1CCC[C@H]1C(=O)OC` (stereo partly drawn) [Compound 58] (Boc-[dIle(3ξ)]-Pro-OMe), the Lesion outbreak rate runs as follows: (Table 5, tobacco, 10 ppm) 28%; (Table 5, tobacco, 100 ppm) 13%.
Regarding `COC(=O)[C@@H]1CCCN1C(=O)[C@@H](Cc1ccccc1)NC(=O)OC(C)(C)C` [Compound 59] (Boc-[dF]-Pro-OMe), the Lesion outbreak rate is on record as 38% (Table 5, tobacco, 10 ppm) and 25% (Table 5, tobacco, 100 ppm).
With `COC(=O)[C@@H]1CCCN1C(=O)[C@@H](CO)NC(=O)OC(C)(C)C` [Compound 60] (Boc-[dS]-Pro-OMe), the Lesion outbreak rate was 18% (Table 5, tobacco, 10 ppm) and 56% (Table 5, tobacco, 100 ppm).
Consider `COC(=O)[C@@H]1CCCN1C(=O)[C@@H](CCSC)NC(=O)OC(C)(C)C` [Compound 63] (Boc-[dM]-Pro-OMe), for which the Lesion outbreak rate is, setting by setting: (Table 5, tobacco, 10 ppm) 56%; (Table 5, tobacco, 100 ppm) 52%.
As to `COC(=O)[C@H]1CCCN1C(=O)[C@@H](CO)NC(=O)OC(C)(C)C` [Compound 64] (Boc-[dS]-[dP]-OMe), the Lesion outbreak rate reads like this: (Table 6, tobacco, 1 ppm) 100%; (Table 6, tobacco, 10 ppm) 23%; (Table 6, tobacco, 100 ppm) 100%.
Turning to `COC(=O)[C@H]1CCCN1C(=O)[C@@H](Cc1ccccc1)NC(=O)OC(C)(C)C` [Compound 65] (Boc-[dF]-[dP]-OMe), the Lesion outbreak rate runs as follows: (Table 6, tobacco, 1 ppm) 80%; (Table 6, tobacco, 10 ppm) 57%; (Table 6, tobacco, 100 ppm) 55%.
For `COC(=O)[C@H]1CCCN1C(=O)[C@@H](CCSC)NC(=O)OC(C)(C)C` [Compound 68] (Boc-[dM]-[dP]-OMe), in that order: 78%, 53% and 25%.
For `COC(=O)[C@H]1CCCN1C(=O)[C@@H](C)NC(=O)OC(C)(C)C` [Compound 70] (Boc-[dA]-[dP]-OMe), the Lesion outbreak rate by setting is: (Table 6, tobacco, 1 ppm) 80%; (Table 6, tobacco, 10 ppm) 72%; (Table 6, tobacco, 100 ppm) 77%.
As to `COC(=O)[C@H]1CCCN1C(=O)[C@@H](Cc1ccc(O)cc1)NC(=O)OC(C)(C)C` [Compound 71] (Boc-[dY]-[dP]-OMe), the Lesion outbreak rate runs as follows: (Table 6, tobacco, 1 ppm) 60%; (Table 6, tobacco, 10 ppm) 65%; (Table 6, tobacco, 100 ppm) 40%.
For `COC(=O)[C@H]1CCCN1C(=O)[C@@H](CCC(N)=O)NC(=O)OC(C)(C)C` [Compound 72] (Boc-[dQ]-[dP]-OMe), in that order: 55%, 72% and 45%.
The compound `COC(=O)[C@H]1CCCN1C(=O)[C@@H](Cc1c[nH]c2ccccc12)NC(=O)OC(C)(C)C` [Compound 73] (Boc-[dW]-[dP]-OMe) had a Lesion outbreak rate (Table 6, tobacco, 1 ppm) of 35%; a Lesion outbreak rate (Table 6, tobacco, 10 ppm) of 60%; a Lesion outbreak rate (Table 6, tobacco, 100 ppm) of 46%.
For the compound `COC(=O)[C@H]1CCCN1C(=O)[C@@H](CC(C)C)NC(=O)OC(C)(C)C` [Compound 75] (Boc-[dL]-[dP]-OMe), the Lesion outbreak rate runs as follows: (Table 6, tobacco, 1 ppm) 25%; (Table 6, tobacco, 10 ppm) 80%; (Table 6, tobacco, 100 ppm) 100%.
As for `COC(=O)[C@H]1CCCN1C(=O)[C@H](NC(=O)OC(C)(C)C)C(C)C` [Compound 76] (Boc-[dV]-[dP]-OMe), the Lesion outbreak rate runs as follows: (Table 6, tobacco, 1 ppm) 46%; (Table 6, tobacco, 10 ppm) 41%; (Table 6, tobacco, 100 ppm) 37%.
